# According to ChEMBL document CHEMBL3885861, “Open TG-GATES”:
# Species on record: Rattus norvegicus
# Test: Open TG-GATES - Regimen: Daily Repeat
# Assay type: toxicity, organism-based, Sprague-Dawley
# Parameters: regimen Daily Repeat, gender Male, age 6 weeks
# Details: in vivo, po, route gavage; for A/G / ALP / ALT / AST / BUN / CRE / Ca / Cl / DBIL / GLC / IP / K / LDH / Na / PL / RALB / TBIL / TC / TG / TP / gamma-GTP: tissue Plasma; for APTT / Bas / Eos / Fbg / Hb / Ht / Lym / MCH / MCHC / MCV / Mono / Neu / PT / Plat / RBC / Ret / WBC: tissue Blood; for KIDNEY_L / KIDNEY_R / KIDNEY_TOTAL: tissue Kidney; for LIVER: tissue Liver
# [1] = 1 mg/kg, […], dose level Low, time 14 day
# [2] = 1 mg/kg, […], dose level Low, time 28 day
# [3] = 2 mg/kg, 72 h, dose level Middle, time 3 day
# [4] = 2 mg/kg, […], dose level Middle, time 7 day
# [5] = 2 mg/kg, […], dose level Middle, time 14 day
# [6] = 2 mg/kg, […], dose level Middle, time 28 day
compound,measurement,setting,value
COc1ccc2c(c1)c(CC(=O)O)c(C)n2C(=O)c1ccc(Cl)cc1 [INDOMETHACIN],A/G,[1],1.8
same,ALP,[1],725.6 IU/L
same,ALT,[1],33.6 IU/L
same,AST,[1],60.6 IU/L
same,BUN,[1],19.6 mg/dL
same,CRE,[1],0.6 mg/dL
same,Ca,[1],10.5 mg/dL
same,Cl,[1],105.6 meq/L
same,DBIL,[1],0.004 mg/dL
same,GLC,[1],194.8 mg/dL
same,IP,[1],8.1 mg/dL
same,K,[1],4.5 meq/L
same,LDH,[1],87.2 IU/L
same,Na,[1],139.4 meq/L
same,PL,[1],165.2 mg/dL
same,RALB,[1],4.2 g/dL
same,TBIL,[1],0.3 mg/dL
same,TC,[1],81.2 mg/dL
same,TG,[1],161 mg/dL
same,TP,[1],6.5 g/dL
same,gamma-GTP,[1],1.4 IU/L
same,A/G,[2],1.9
same,ALP,[2],695.6 IU/L
same,ALT,[2],31 IU/L
same,AST,[2],62.6 IU/L
same,BUN,[2],21.6 mg/dL
same,CRE,[2],0.7 mg/dL
same,Ca,[2],10.6 mg/dL
same,Cl,[2],106.6 meq/L
same,DBIL,[2],0.008 mg/dL
same,GLC,[2],203.8 mg/dL
same,IP,[2],7.8 mg/dL
same,K,[2],4.2 meq/L
same,LDH,[2],101.8 IU/L
same,Na,[2],139.6 meq/L
same,PL,[2],157.8 mg/dL
same,RALB,[2],4.2 g/dL
same,TBIL,[2],0.3 mg/dL
same,TC,[2],77.8 mg/dL
same,TG,[2],178.4 mg/dL
same,TP,[2],6.5 g/dL
same,gamma-GTP,[2],1.2 IU/L
same,TERMINAL_BW,[3],238.9 g
same,APTT,[3],16 s
same,Bas,[3],0%
same,Eos,[3],0.6%
same,Fbg,[3],218.2 mg/dL
same,Hb,[3],13.5 g/dL
same,Ht,[3],40.5%
same,Lym,[3],82.2%
same,MCH,[3],21.1 pg
same,MCHC,[3],33.4%
same,MCV,[3],63.3 fL
same,Mono,[3],6.4%
same,Neu,[3],10.8%
same,PT,[3],11.1 s
same,Plat,[3],112.9 x10_4/uL
same,RBC,[3],638.8 x10_4/ul
same,Ret,[3],7.1%
same,WBC,[3],126.4 x10_2/uL
same,KIDNEY_L,[3],1.1 g
same,KIDNEY_R,[3],1.1 g
same,KIDNEY_TOTAL,[3],2.1 g
same,LIVER,[3],11.6 g
same,A/G,[3],2.1
same,ALP,[3],1212.4 IU/L
same,ALT,[3],32.8 IU/L
same,AST,[3],62 IU/L
same,BUN,[3],17 mg/dL
same,CRE,[3],0.6 mg/dL
same,Ca,[3],10.5 mg/dL
same,Cl,[3],107.2 meq/L
same,DBIL,[3],0.058 mg/dL
same,GLC,[3],199.6 mg/dL
same,IP,[3],8.3 mg/dL
same,K,[3],4.9 meq/L
same,LDH,[3],91.6 IU/L
same,Na,[3],139.6 meq/L
same,PL,[3],143.8 mg/dL
same,RALB,[3],3.9 g/dL
same,TBIL,[3],0.4 mg/dL
same,TC,[3],78.2 mg/dL
same,TG,[3],64.8 mg/dL
same,TP,[3],5.7 g/dL
same,gamma-GTP,[3],1 IU/L
same,TERMINAL_BW,[4],284.3 g
same,TERMINAL_BW,[5],341.8 g
same,TERMINAL_BW,[6],428.5 g
same,APTT,[4],16.5 s
same,Bas,[4],0%
same,Eos,[4],1%
same,Fbg,[4],240 mg/dL
same,Hb,[4],13.7 g/dL
same,Ht,[4],41.4%
same,Lym,[4],79.8%
same,MCH,[4],20.6 pg
same,MCHC,[4],33.1%
same,MCV,[4],62.2 fL
same,Mono,[4],8%
same,Neu,[4],11.6%
same,PT,[4],11.7 s
same,Plat,[4],112.9 x10_4/uL
same,RBC,[4],666.6 x10_4/ul
same,Ret,[4],6.2%
same,WBC,[4],126.6 x10_2/uL
same,APTT,[5],16.2 s
same,Bas,[5],0%
same,Eos,[5],0.8%
same,Fbg,[5],236.6 mg/dL
same,Hb,[5],14.2 g/dL
same,Ht,[5],43.1%
same,Lym,[5],86.4%
same,MCH,[5],20.5 pg
same,MCHC,[5],32.9%
same,MCV,[5],62.4 fL
same,Mono,[5],5.8%
same,Neu,[5],7.2%
same,PT,[5],11.8 s
same,Plat,[5],114.5 x10_4/uL
same,RBC,[5],689.8 x10_4/ul
same,Ret,[5],5.1%
same,WBC,[5],134.6 x10_2/uL
same,APTT,[6],16.9 s
same,Bas,[6],0%
same,Eos,[6],1%
same,Fbg,[6],255.2 mg/dL
same,Hb,[6],15.1 g/dL
same,Ht,[6],45.3%
same,Lym,[6],83.6%
same,MCH,[6],19.6 pg
same,MCHC,[6],33.4%
same,MCV,[6],58.6 fL
same,Mono,[6],3.8%
same,Neu,[6],11.4%
same,PT,[6],11.9 s
same,Plat,[6],101.6 x10_4/uL
same,RBC,[6],774.2 x10_4/ul
same,Ret,[6],3.1%
same,WBC,[6],136.4 x10_2/uL
same,KIDNEY_L,[4],1.2 g
same,KIDNEY_R,[4],1.2 g
same,KIDNEY_TOTAL,[4],2.4 g
same,KIDNEY_L,[5],1.3 g
same,KIDNEY_R,[5],1.3 g
same,KIDNEY_TOTAL,[5],2.6 g
same,KIDNEY_L,[6],1.5 g
same,KIDNEY_R,[6],1.5 g
same,KIDNEY_TOTAL,[6],3 g
same,LIVER,[4],14.5 g
same,LIVER,[5],16.3 g
same,LIVER,[6],18.6 g
